The values that follow are results of earlier work, collected in patent US20250268820A1 (Zambon S.p.A., priority 2020, published 2025).

For data set [1] the following is noted: in vivo.

Turning to `OC(Cn1cncn1)(Cn1cncn1)c1ccc(F)cc1F` [Fluconazole], the “activity against invasive aspergillosis” value with invasive aspergillosis is “not active”.

Turning to `CCC(C)n1ncn(-c2ccc(N3CCN(c4ccc(OCC5COC(Cn6cncn6)(c6ccc(Cl)cc6Cl)O5)cc4)CC3)cc2)c1=O` (stereo not drawn) [itraconazole], for the setting “healthy volunteers”, the “ELF exposure as fraction of the plasma concentration” value was “approximately ⅓” and the “concentration in the alveolar cells with respect to the plasma concentration” value is recorded as “more than double”. For the setting “other cases”, the “concentrations in bronchoalveolar lavage fluid and lung tissue in the airways versus plasma” value is recorded as 10 times lower.

As for `C[C@@H](c1ncncc1F)[C@](O)(Cn1cncn1)c1ccc(F)cc1F` [voriconazole], the “pharmacokinetic profile (Cmax and AUC versus dose)” value in data set [1] is given as “non-linear”. Further, the “concentration in homogenates of lung tissue versus plasma” value (post-mortem studies, treated patients) is “comparable to those measured in the plasma”.
